Biological target: T1, human DGAT1 (Homo sapiens, UniProt O75907)
T1 construct: made in house; host or cells: Sf9 insect cells (microsomes)
T1 sequence (O75907 1-488): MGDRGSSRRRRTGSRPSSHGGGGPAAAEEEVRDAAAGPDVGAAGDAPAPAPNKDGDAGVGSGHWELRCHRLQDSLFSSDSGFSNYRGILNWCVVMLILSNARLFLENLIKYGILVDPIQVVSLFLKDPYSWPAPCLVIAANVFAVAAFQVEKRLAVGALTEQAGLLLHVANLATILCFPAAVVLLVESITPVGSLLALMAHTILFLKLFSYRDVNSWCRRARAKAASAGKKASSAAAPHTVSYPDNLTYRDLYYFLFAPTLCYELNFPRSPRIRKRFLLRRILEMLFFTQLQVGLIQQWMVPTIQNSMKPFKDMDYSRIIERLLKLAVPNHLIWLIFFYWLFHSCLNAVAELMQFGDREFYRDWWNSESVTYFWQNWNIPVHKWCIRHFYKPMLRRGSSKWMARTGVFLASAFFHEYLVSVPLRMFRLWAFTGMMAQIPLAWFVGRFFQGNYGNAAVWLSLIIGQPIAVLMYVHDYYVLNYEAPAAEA
Assay: in vitro DGAT1 inhibition assay (microsomes, [14C]-palmitoyl-CoA, wheat germ agglutinin beads)
Format: biochemical
Details: human DGAT1 enzyme expressed in Sf9 insect cells, 2 hours at room temperature
Experimental: The assay used to determine the DGAT inhibitory activity of the inventive compounds is described below:
The in vitro assay to identify DGAT1 inhibitors uses human DGAT1 enzyme expressed in Sf9 insect cells prepared as microsomes. The reaction was initiated by the addition of the combined substrates 1,2-dioleoyl-sn-glycerol and [^14C]-palmitoyl-CoA and incubated with test compounds and microsomal membranes for 2 hours at room temperature. The assay was stopped by adding 0.5 mg wheat germ agglutinin beads in assay buffer with 1% Brij-35 and 1% 3-cholamidopropyldimethyl-ammonio-1-propane sulfonate. Plates were sealed with TopSeal and incubated for 18 hours to allow the radioactive triglyceride product to come into proximity with the bead. Plates were read on a TopCount instrument.
Percent inhibition was calculated as the percent of (test compound inhibition minus non-specific binding) relative to (total binding minus non-specific binding). IC50 values were determined by curve fitting the data to a Sigmoidal dose-response in GraphPad Prism utilizing the following equation:
Y=A+(B−A)/(1+10̂((LogIC50−X))),
where A and B are the bottom and top of the curve (highest and lowest inhibition), respectively, and X is the logarithm of concentration.

SMILES | IC50 [µM]
CC1CN(C(=O)Nc2ccc(F)cc2C(F)(F)F)c2ccc(-c3ccc([C@H]4CC[C@H](CC(=O)O)CC4)cc3)cc2O1 (single isomer, unassigned) [C-78 enantiomer A, 2-((1r,4r)-4-(4-(4-(4-fluoro-2-(trifluoromethyl)phenylcarbamoyl)-2-methyl-3,4-dihydro-2H-benzo[b][1,4]oxazin-7-yl)phenyl)cyclohexyl)acetic acid] | 0.079
C[C@@H]1CN(C(=O)Nc2ccccc2)c2ccc(-c3ccc([C@H]4CC[C@H](CC(=O)O)CC4)cc3)cc2O1 [B-18 enantiomer A, 2-((1r,4r)-4-(4-(2-methyl-4-(phenylcarbamoyl)-3,4-dihydro-2H-benzo[b][1,4]oxazin-7-yl)phenyl)cyclohexyl)acetic acid] | 0.043
CCc1ccccc1NC(=O)N1C[C@@H](C)Oc2cc(-c3ccc([C@H]4CC[C@H](CC(=O)O)CC4)cc3)ccc21 [C-81 enantiomer A, 2-((1r,4r)-4-(4-(4-(2-ethylphenylcarbamoyl)-2-methyl-3,4-dihydro-2H-benzo[b][1,4]oxazin-7-yl)phenyl)cyclohexyl)acetic acid] | 0.058
O=C(O)C[C@H]1CC[C@H](c2ccc(-c3ccc4c(C(=O)Nc5ccccc5)ccnc4c3)cc2)CC1 [Example B-48, 2-((1r,4r)-4-(4-(4-(phenylcarbamoyl)quinolin-7-yl)phenyl)cyclohexyl)acetic acid] | 0.083

The next lines start with the values.

IC50 [µM] | SMILES
0.02 | O=C(O)C[C@H]1CC[C@H](c2ccc(-c3ccc4c(c3)OCCN4C(=O)Nc3ccc(F)cc3C(F)(F)F)cc2)CC1 [Example C-6, 2-((1r,4r)-4-(4-(4-(4-fluoro-2-(trifluoromethyl)phenylcarbamoyl)-3,4-dihydro-2H-benzo[b][1,4]oxazin-7-yl)phenyl)cyclohexyl)acetic acid]
0.082 | CCCCCCNC(=O)N1CC(C)Oc2cc(-c3ccc([C@H]4CC[C@H](CC(=O)O)CC4)cc3)ccc21 (stereo partly shown) [Example C-113, 2-((1r,4r)-4-(4-(4-(hexylcarbamoyl)-2-methyl-3,4-dihydro-2H-benzo[b][1,4]oxazin-7-yl)phenyl)cyclohexyl)acetic acid]
0.071 | CCCCCCCNC(=O)N1CC(C)Oc2cc(-c3ccc([C@H]4CC[C@H](CC(=O)O)CC4)cc3)ccc21 (stereo partly shown) [Example C-116, 2-((1r,4r)-4-(4-(4-(heptylcarbamoyl)-2-methyl-3,4-dihydro-2H-benzo[b][1,4]oxazin-7-yl)phenyl)cyclohexyl)acetic acid]
0.072 | CC(C)c1ccccc1NC(=O)c1ccnc2cc(-c3ccc([C@H]4CC[C@H](CC(=O)O)CC4)cc3)ccc12 [Example C-125, 2-((1r,4r)-4-(4-(4-(2-isopropylphenylcarbamoyl)quinolin-7-yl)phenyl)cyclohexyl)acetic acid]
0.094 | CCCc1ccccc1NC(=O)c1ccnc2cc(-c3ccc([C@H]4CC[C@H](CC(=O)O)CC4)cc3)ccc12 [Example C-129, 2-((1r,4r)-4-(4-(4-(2-propylphenylcarbamoyl)quinolin-7-yl)phenyl)cyclohexyl)acetic acid]
0.028 | Cc1cc(C(=O)Nc2ccccc2)c2ccc(-c3ccc([C@H]4CC[C@H](CC(=O)O)CC4)cc3)cc2n1 [Example C-134, 2-((1r,4r)-4-(4-(2-methyl-4-(phenylcarbamoyl)quinolin-7-yl)phenyl)cyclohexyl)acetic acid]
0.061 | Cc1cc(C(=O)NCCc2ccccc2)c2ccc(-c3ccc([C@H]4CC[C@H](CC(=O)O)CC4)cc3)cc2n1 [Example C-139, 2-((1r,4r)-4-(4-(2-methyl-4-(phenethylcarbamoyl)quinolin-7-yl)phenyl)cyclohexyl)acetic acid]
0.015 | Cc1cc(C(=O)NCCCCc2ccccc2)c2ccc(-c3ccc([C@H]4CC[C@H](CC(=O)O)CC4)cc3)cc2n1 [Example C-141, 2-((1r,4r)-4-(4-(2-methyl-4-(4-phenylbutylcarbamoyl)quinolin-7-yl)phenyl)cyclohexyl)acetic acid]
0.083 | CCCCCCCNC(=O)N1CC(CC)Oc2cc(-c3ccc([C@H]4CC[C@H](CC(=O)O)CC4)cc3)ccc21 (stereo partly shown) [Example C-150, 2-((1r,4r)-4-(4-(2-ethyl-4-(heptylcarbamoyl)-3,4-dihydro-2H-benzo[b][1,4]oxazin-7-yl)phenyl)cyclohexyl)acetic acid]
